These results are taken from PMC4148444, “P. aeruginosa SGNH Hydrolase-Like Proteins AlgJ and AlgX Have Similar Topology but Separate and Distinct Roles in Alginate Acetylation” (PLoS Pathogens, 2014).

Data set [1] has as its target T1, PaAlgX27–474 (Pseudomonas aeruginosa, UniProt Q51372).
T1 construct: gene algX; residues 27-474 (mature protein, SGNH hydrolase-like domain plus C-terminal CBM)
The data set is described as follows: direct ESI-MS binding assay. To be noted: 50 mM ammonium acetate, pH 7, 298 K; corrected for nonspecific binding; site (active site or CBM) not resolved; read-out: Apparent K a (M^-1) AlgX. An excerpt:
direct ESI-MS binding assay on PaAlgX27–474

The target in data set [2] is T2, PaAlgJ79–379 (Pseudomonas aeruginosa, UniProt Q51393).
T2 construct: gene algJ; soluble periplasmic domain 79-379 without TM helix 12-29; N-terminal His6 thrombin-cleaved; expressed in E. coli BL21-CodonPlus; monomer by SEC
The data set is described as follows: direct ESI-MS binding assay. To be noted: 50 mM ammonium acetate, pH 7, 298 K; only folded (low charge state) fraction used, its concentration not accurately known; read-out: Apparent K a (M^-1) AlgJ. The text has this: direct ESI-MS binding assay on PaAlgJ79–379

Data set [3] deals with CC(=O)Oc1ccc2cc(C(=O)O)c(=O)oc2c1. Kind of data set: fluorescence acetylesterase assay. Format: biochemical, Pseudomonas putida. To be noted: 50 mM sodium HEPES pH 7.0, 298 K, up to 10% DMSO, kcat given as (×10^3 s^-1), kcat/Km implies ×10^-3, 25.0 °C. The text has this: fluorescence acetylesterase assay on PpAlgJ75–370
The test system is the same in data set [4]. Kind of data set: purified protein. To be noted: up to 10% DMSO, kcat given as (×10^3 s^-1), kcat/Km implies ×10^-3, 25.0 °C.
The mark [5] stands for this setting: 50 mM sodium HEPES pH 8.0, 298 K.
The mark [6] stands for this setting: 50 mM sodium HEPES pH 7.0, 298 K.

T2 sequence (Q51393 79-379): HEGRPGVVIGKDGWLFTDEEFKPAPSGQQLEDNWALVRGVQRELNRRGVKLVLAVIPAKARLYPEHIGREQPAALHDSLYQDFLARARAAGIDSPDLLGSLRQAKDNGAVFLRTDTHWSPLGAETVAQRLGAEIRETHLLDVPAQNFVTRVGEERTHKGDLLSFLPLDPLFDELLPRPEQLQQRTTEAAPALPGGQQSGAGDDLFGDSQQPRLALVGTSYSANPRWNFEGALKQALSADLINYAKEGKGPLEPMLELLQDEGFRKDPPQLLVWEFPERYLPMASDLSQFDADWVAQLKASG
T1 sequence (Q51372 27-474): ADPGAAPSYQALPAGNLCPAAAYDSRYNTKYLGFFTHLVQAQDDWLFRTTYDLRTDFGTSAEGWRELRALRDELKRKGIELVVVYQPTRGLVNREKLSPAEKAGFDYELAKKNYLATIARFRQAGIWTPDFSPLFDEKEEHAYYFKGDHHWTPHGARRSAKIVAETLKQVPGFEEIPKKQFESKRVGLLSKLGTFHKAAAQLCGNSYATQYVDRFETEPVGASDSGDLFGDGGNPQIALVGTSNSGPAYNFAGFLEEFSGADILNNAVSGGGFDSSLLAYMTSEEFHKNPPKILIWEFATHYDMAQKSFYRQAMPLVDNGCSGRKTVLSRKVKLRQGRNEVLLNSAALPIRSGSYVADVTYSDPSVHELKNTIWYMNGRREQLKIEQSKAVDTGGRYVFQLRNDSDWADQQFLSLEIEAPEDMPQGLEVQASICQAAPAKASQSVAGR

With ManA10, the Kd in data set [1] was 100 µM.

For ManA12, in data set [1], the Kd is 52.6 µM.

Take `CCCO[C@@H]1O[C@H](C(=O)O)[C@@H](O[C@@H]2O[C@H](C(=O)O)[C@@H](O[C@@H]3O[C@H](C(=O)O)[C@@H](O[C@@H]4O[C@H](C(=O)O)[C@@H](O[C@@H]5O[C@H](C(=O)O)[C@@H](O[C@@H]6O[C@H](C(=O)O)[C@@H](O)[C@H](O)[C@@H]6O)[C@H](O)[C@@H]5O)[C@H](O)[C@@H]4O)[C@H](O)[C@@H]3O)[C@H](O)[C@@H]2O)[C@H](O)[C@@H]1O` [ManA6]: the Kd in data set [2] is greater than 2000 µM; in data set [1], 312 µM.

As for “PpAlgJ75–370 (Pseudomonas putida KT2440)”, in data set [3], the Michaelis-Menten constant (Km) was determined as 2300 ± 96.3 µM, the kcat is on record as 7.80±0.155 ×10^-3 s^-1 and the kcat/Km came to 3.39 ± 0.0688 M⁻¹ s⁻¹.

Consider `O=C(O)C1OC(OC2C(C(=O)O)OC(OC3C(C(=O)O)OC(OC4C(C(=O)O)OC(O)C(O)C4O)C(O)C3O)C(O)C2O)C(O)C(O)C1O` (stereo not shown) [ManA4], for which the Kd in data set [2] is greater than 2000 µM; in data set [1], 1000 µM.

As for “PaAlgX27–474 (Pseudomonas aeruginosa PAO1)”, in data set [4] (setting [5]), the Km was 1100 ± 96 µM, the kcat is reported as 11.4±0.343 ×10^-3 s^-1 and the catalytic efficiency (kcat/Km) is 10.3 ± 0.961 M⁻¹ s⁻¹.

Consider “PaAlgJ79–379 (Pseudomonas aeruginosa PAO1)”, for which, in data set [4] (setting [6]), the Km was found to be 1160 ± 120 µM, the kcat is 3.44±0.129 ×10^-3 s^-1 and the kcat/Km was 2.96 ± 0.324 M⁻¹ s⁻¹.

Take ManA9: in data set [1], the Kd is 114 µM.

Regarding `O=C(O)C1OC(OC2C(C(=O)O)OC(OC3C(C(=O)O)OC(OC4C(C(=O)O)OC(OC5C(C(=O)O)OC(O)C(O)C5O)C(O)C4O)C(O)C3O)C(O)C2O)C(O)C(O)C1O` (stereo not shown) [ManA5], the results for the Kd in data set [2] and in data set [1] were greater than 2000 µM and 1000 µM, respectively.

For ManA11, the Kd in data set [1] came out at 62.5 µM.

Regarding ManA7, the Kd is greater than 2000 µM in data set [2] and 208 µM in data set [1].

In the case of ManA8, in data set [1], the Kd came out at 172 µM.
